Results: patent publication US5604263A, “Treating osteoporosis with humulones” (Hoechst Japan Limited, priority 1994, dated 1997)
Where two headings read alike, the source gives them in different places.

Tested on: bone resorption (pit formation) by bone cell containing osteoclasts
Assay: Pit formation assay (bone resorption inhibiting activity; absorption cavities on ivory pieces)
Assay type: cell-based, ICR mice
Conditions: for No. of pits (Mean ± SD): control 328.0 ± 51.0; for IC50 / inhibition at 10 µM / inhibition at 1 µM / inhibition at 0.1 µM / inhibition at 0.01 µM / inhibition at 0.001 µM / inhibition at 0.0001 µM / inhibition at 10 pM: Mus musculus, Osteoclast; for IC50: read-out: 50% inhibitory (ID50) value
Experimental: From 10 to 11-day old ICR mice (purchased from Charles River Inc.) were extracted femur and shank, which were then chopped using scissors in a-MEM medium (purchased from Flow Laboratories Inc.) containing 5% FBS (purchased from Irving Scientific Inc.), 100 U/ml penicillin and 100 μg/ml streptomycin. And further, the resulting supernatant was recovered by pipetting, washed with the medium and then suspended in 5% FBS, a-MEM medium to form bone cell containing osteoclasts. The bone cell suspension thus prepared was incubated in the medium containing rat parathyroid hormone for one week. After completion of the incubation, the cells were recovered using 0.05% trypsin EDTA-PBS and applied to pit formation assay.
An ivory piece was cut to a thickness of 150 μm using a precision low speed cutter (purchased from Buehler GmbH) and then round pieces with a diameter of 6 mm were cut out using a one-hole punch. These ivory pieces were immersed in 70% ethanol, subjected to sonication twice for each 5 minutes and then washed three times with sterile PBS and twice with the medium. These ivory pieces were placed in a 96-well culture plate (purchased from Falcon Inc.) and 100 µl of the medium containing medicaments at various concentrations was added. Then, 100 μl of the media containing the above prepared bone cells 1×10^5 was added to each well. Incubation was carried out at 37° C. in a 10% CO2 incubator for 2 days. After completion of the incubation, the cell over the ivory piece was removed, absorption cavities were stained with Coomassie Brilliant Blue and the number of the absorption cavities thus formed was counted under microscope.
Organosynthetic humulone was prepared according to Obara, H. et al., Bull. Chem. Soc. Jpn., vol.62, p.3034-3035 (1989). Bone resorption inhibiting activities of the organosynthetic humulone thus obtained and α acids obtained in example 1 were determined by means of the assay as described in (2) of example 2.
Bone resorption inhibiting activities of the native humulone thus obtained in Example 4 and the organosynthetic humulone thus obtained in Example 3 were determined by means of the assay as described in (2) of example 2.

Row | SMILES | No. of pits (Mean ± SD) (Example 5, dose 10^-5 M) | No. of pits (Mean ± SD) (Example 5, dose 10^-6 M) | No. of pits (Mean ± SD) (Example 5, dose 10^-7 M) | No. of pits (Mean ± SD) (Example 5, dose 10^-8 M) | No. of pits (Mean ± SD) (Example 5, dose 10^-9 M) | No. of pits (Mean ± SD) (Example 5, dose 10^-10 M) | No. of pits (Mean ± SD) (Example 5, dose 10^-11 M) | IC50 (Example 5) | inhibition at 10 µM (Example 5, dose 10^-5 M) | inhibition at 1 µM (Example 5, dose 10^-6 M) | inhibition at 0.1 µM (Example 5, dose 10^-7 M) | inhibition at 0.01 µM (Example 5, dose 10^-8 M) | inhibition at 0.001 µM (Example 5, dose 10^-9 M) | inhibition at 0.0001 µM (Example 5, dose 10^-10 M) | inhibition at 10 pM (Example 5, dose 10^-11 M) | IC50 (Example 3, organosynthetic humulone and α acids of example 1)
1 | CC(C)=CCC1=C(O)C(C(=O)CC(C)C)=C(O)C(O)(CC=C(C)C)C1=O (single isomer, unassigned) [Native humulone, humulone] | 0.3 ± 0.5 | 6.5 ± 3.8 | 34.5 ± 7.4 | 128.5 ± 23.1 | 251.5 ± 135.4 | 274.3 ± 54.9 | 274.3 ± 91.6 | 0.0059 µM | 99.9% | 98% | 89.5% | 60.8% | 23.3% | 16.4% | 16.4% | –
2 | CC(C)=CCC1C(=O)C(C(=O)CC(C)C)=C(O)C(O)(CC=C(C)C)C1=O (stereo not shown) [Organosynthetic humulone, humulone] | 6.8 ± 5.3 | 33.7 ± 20.2 | 70.7 ± 9.3 | 217.0 ± 89.1 | 221.8 ± 88.3 | 221.3 ± 54.1 | 281.3 ± 38.1 | 0.026 µM | 97.9% | 89.7% | 78.4% | 33.8% | 32.4% | 32.5% | 14.2% | 0.13 µM
